These results are taken from US20240002438A1, “MELANOCORTIN LIGANDS AND METHODS OF USE THEREOF” (REGENTS OF THE UNIVERSITY OF MINNESOTA, priority 2021, published 2024).

Series [1] in a line: Solubility in solvents compatible with RP-HPLC.
The target of series [2] is T1, mMC1R (Mus musculus, UniProt Q01727). As to the kind of experiment: cell-based.
Method: (§1) Following stimulation, streptavidin donor beads (0.5 μg) and biotinylated-cAMP (0.62 μmol) were added to the wells in a green light environment with 10 μL of lysis buffer (5 mM HEPES, 0.3% Tween-20, 0.1% BSA, pH=7.4) and the plates were incubated in the dark at room temperature for an additional 2 h. Plates were read on a Enspire (PerkinElmer) Alpha-plate reader using a pre-normalized assay protocol (set by the manufacturer).
Series [3] addresses T2, mMC3R (Mus musculus, UniProt P33033). Description: cAMP AlphaScreen antagonist assay at mMC3R, NDP-MSH as agonist, HEK293 cells. The following applies: for mMC3R antagonist pA2: NDP-MSH as agonist, HEK293 cells stably expressing mMC3R.
Series [4] has as its target T2, mMC3R. On the set-up: expressed in transfected cells; host or cells: HEK293. The following applies: Doering 2017; cited from earlier work.
For series [5], the target named is T3, mMC4R (Mus musculus, UniProt P56450). Description: cAMP AlphaScreen antagonist assay at mMC4R, NDP-MSH as agonist, HEK293 cells. The following applies: for mMC4R antagonist pA2: NDP-MSH as agonist, HEK293 cells stably expressing mMC4R. For orientation: Bead proximity is the source of the signal in Alpha formats.
Method: as §1
Series [6] concerns the target T2, mMC3R. On the set-up: expressed in transfected cells; host or cells: HEK293. The following applies: Doering 2017; cited from earlier work. The source holds these as a separate data set.
Series [7] concerns the target T1, mMC1R. The following applies: for mMC1R agonist activity: up to 100 μM.
Method: as §1
For series [8], the target named is T3, mMC4R. On the set-up: expressed in transfected cells; host or cells: HEK293. The following applies: Doering 2017; cited from earlier work.
Series [9] deals with T3, mMC4R. On the set-up: expressed in transfected cells; host or cells: HEK293. The following applies: cited from earlier work.
For series [10], the target named is T4, mMC5R (Mus musculus, UniProt P41149). On the set-up: expressed in transfected cells; host or cells: HEK293. The following applies: Doering 2017; cited from earlier work.
Series [11] deals with T3, mMC4R. Description: cAMP AlphaScreen agonist assay at mMC4R, HEK293 cells. The following applies: for mMC4R agonist activity: up to 100 μM.
Method: as §1
The target in series [12] is T4, mMC5R. Description: cAMP AlphaScreen agonist assay at mMC5R, HEK293 cells. The following applies: for mMC5R agonist activity: up to 100 μM.
Method: as §1
Series [13] concerns the target T2, mMC3R. Description: cAMP AlphaScreen agonist assay at mMC3R, HEK293 cells. The following applies: up to 100 μM.
Method: as §1
Series [14] addresses T5, MC4R (Homo sapiens, UniProt P32245). The following applies: Nozawa 2007; cited from earlier work.
Target sequence in this assay (P32245 whole entry): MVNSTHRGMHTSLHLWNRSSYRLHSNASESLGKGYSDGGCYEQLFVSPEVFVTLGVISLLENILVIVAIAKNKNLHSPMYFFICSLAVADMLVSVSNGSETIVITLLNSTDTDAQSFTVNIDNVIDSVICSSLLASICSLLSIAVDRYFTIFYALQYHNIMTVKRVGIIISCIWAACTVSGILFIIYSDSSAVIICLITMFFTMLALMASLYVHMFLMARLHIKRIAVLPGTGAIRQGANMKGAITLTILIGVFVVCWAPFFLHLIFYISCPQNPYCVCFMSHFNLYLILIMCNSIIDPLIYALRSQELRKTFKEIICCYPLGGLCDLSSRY
Another series addresses human (h)MC4R (Homo sapiens, UniProt P32245). The following applies: Chaki 2003; read-out: binding affinity at hMC4R; cited from earlier work.
The target of series [15] is T6, MC3R (Homo sapiens, UniProt P41968). The following applies: Chaki 2003; read-out: binding affinity at hMC3R; cited from earlier work.
Target sequence in this assay (P41968 whole entry): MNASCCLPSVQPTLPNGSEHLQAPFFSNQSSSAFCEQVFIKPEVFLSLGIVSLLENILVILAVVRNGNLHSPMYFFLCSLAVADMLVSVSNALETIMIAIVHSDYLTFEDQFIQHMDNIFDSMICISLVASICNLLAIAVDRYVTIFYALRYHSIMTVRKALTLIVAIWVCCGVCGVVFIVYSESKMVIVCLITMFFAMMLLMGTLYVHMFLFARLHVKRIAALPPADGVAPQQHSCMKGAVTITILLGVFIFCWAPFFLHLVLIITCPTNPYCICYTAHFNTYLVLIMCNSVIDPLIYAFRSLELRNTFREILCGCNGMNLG
For series [16], the target named is T7, MC1R (Homo sapiens, UniProt Q01726). The following applies: unable to displace at up to this concentration; Chaki 2003; read-out: displacement of radiolabeled NDP-MSH at hMC1R; cited from earlier work.
Target sequence in this assay (Q01726 whole entry): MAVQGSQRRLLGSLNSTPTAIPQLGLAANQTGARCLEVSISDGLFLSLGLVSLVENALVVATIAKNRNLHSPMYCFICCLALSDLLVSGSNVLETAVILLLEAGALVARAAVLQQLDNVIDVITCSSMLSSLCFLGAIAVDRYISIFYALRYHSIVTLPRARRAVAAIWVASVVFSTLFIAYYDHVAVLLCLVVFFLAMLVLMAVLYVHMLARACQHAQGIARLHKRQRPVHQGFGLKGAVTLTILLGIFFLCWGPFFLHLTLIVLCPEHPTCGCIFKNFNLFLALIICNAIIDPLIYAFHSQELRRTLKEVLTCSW
The target in series [17] is T6, MC3R. The following applies: unable to displace at up to this concentration; read-out: displacement of NDP-MSH at the MC3R; cited from earlier work.
Target sequence in this assay (P41968 whole entry, species assumed): as the sequence (P41968 whole entry) above
In series [18] the target is T7, MC1R. The following applies: unable to displace at up to this concentration; read-out: displacement of NDP-MSH at the MC1R; cited from earlier work.
Target sequence in this assay (Q01726 whole entry, species assumed): as the sequence (Q01726 whole entry) above
For series [19], the target named is T8, MC5R (Homo sapiens, UniProt P33032). The following applies: Bednarek, cited from earlier work.
Series [20] concerns the target T8, MC5R. The following applies: Bednarek, cited from earlier work. The source holds these as a separate data set.
The target in series [21] is T5, MC4R. The following applies: unable to displace at up to this concentration; read-out: displacement of NDP-MSH at the MC4R; cited from earlier work.
Target sequence in this assay (P32245 whole entry, species assumed): as the sequence (P32245 whole entry) above
Series [22] has as its target T5, MC4R. The following applies: at 2 μM; cited from earlier work.
Target sequence in this assay (P32245 whole entry, species assumed): as the sequence (P32245 whole entry) above
The target of series [23] is T7, MC1R. The following applies: at 2 μM; cited from earlier work.
Target sequence in this assay (Q01726 whole entry, species assumed): as the sequence (Q01726 whole entry) above
Series [24] addresses T6, MC3R. The following applies: at 2 μM; cited from earlier work.
Target sequence in this assay (P41968 whole entry, species assumed): as the sequence (P41968 whole entry) above
For series [25], the target named is T5, MC4R. The following applies: Grieco 2002; cited from earlier work.
Target sequence in this assay (P32245 whole entry): as the sequence (P32245 whole entry) above
For series [26], the target named is T6, MC3R. The following applies: Grieco 2002; cited from earlier work.
Target sequence in this assay (P41968 whole entry): as the sequence (P41968 whole entry) above

Read-outs that look alike come from different tables or passages of the source. Where a SMILES comes first, the peptide text is derived from it. Primed or numbered codes have the meaning given here. [ ]: non-standard residue; d: D form. dBip = N[C@H](Cc1ccc(-c2ccccc2)cc1)C(=O)O; Oic = O=C(O)[C@@H]1C[C@@H]2CCCC[C@@H]2N1; dPhe(4-I) = N[C@H](Cc1ccc(I)cc1)C(=O)O; 2Nal = N[C@@H](Cc1ccc2ccccc2c1)C(=O)O; d2Nal = N[C@H](Cc1ccc2ccccc2c1)C(=O)O; Nle = CCCC[C@H](N)C(=O)O; Pip′ = not defined here

T3 sequence (P56450 whole entry): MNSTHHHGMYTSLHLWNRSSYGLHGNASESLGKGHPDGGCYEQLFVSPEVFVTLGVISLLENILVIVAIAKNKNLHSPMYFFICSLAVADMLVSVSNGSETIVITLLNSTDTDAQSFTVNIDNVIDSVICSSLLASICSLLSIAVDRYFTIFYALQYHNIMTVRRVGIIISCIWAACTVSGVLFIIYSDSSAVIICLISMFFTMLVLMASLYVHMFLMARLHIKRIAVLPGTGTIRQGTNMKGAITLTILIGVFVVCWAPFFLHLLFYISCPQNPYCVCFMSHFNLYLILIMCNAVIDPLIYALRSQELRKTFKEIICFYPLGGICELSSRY
T2 sequence (P33033 whole entry): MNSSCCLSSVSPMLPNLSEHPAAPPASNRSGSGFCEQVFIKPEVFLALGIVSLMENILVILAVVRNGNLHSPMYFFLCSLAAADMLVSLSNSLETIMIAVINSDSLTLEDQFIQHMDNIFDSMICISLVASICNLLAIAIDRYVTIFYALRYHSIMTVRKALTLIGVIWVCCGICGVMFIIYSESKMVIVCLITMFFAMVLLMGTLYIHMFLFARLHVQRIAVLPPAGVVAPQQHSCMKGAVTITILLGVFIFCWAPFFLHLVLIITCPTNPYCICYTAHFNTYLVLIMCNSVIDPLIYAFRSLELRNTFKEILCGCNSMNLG
T4 sequence (P41149 whole entry): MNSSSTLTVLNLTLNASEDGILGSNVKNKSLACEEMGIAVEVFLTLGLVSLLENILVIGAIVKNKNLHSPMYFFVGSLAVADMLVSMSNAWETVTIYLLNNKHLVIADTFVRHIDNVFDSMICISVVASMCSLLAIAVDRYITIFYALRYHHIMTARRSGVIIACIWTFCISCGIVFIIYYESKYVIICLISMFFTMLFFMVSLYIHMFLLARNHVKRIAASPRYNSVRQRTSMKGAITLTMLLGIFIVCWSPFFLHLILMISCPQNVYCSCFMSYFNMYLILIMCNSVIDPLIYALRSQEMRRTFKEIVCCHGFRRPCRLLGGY
T1 sequence (Q01727 whole entry): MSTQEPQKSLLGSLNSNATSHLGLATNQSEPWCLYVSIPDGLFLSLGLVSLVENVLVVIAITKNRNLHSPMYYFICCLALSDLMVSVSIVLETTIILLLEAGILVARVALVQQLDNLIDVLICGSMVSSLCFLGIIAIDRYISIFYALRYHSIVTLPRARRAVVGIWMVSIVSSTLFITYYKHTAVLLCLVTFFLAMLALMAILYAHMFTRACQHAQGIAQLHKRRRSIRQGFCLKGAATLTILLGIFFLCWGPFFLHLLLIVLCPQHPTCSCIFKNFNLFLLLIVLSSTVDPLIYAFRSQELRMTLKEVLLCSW
T8 sequence (P33032 whole entry, species assumed): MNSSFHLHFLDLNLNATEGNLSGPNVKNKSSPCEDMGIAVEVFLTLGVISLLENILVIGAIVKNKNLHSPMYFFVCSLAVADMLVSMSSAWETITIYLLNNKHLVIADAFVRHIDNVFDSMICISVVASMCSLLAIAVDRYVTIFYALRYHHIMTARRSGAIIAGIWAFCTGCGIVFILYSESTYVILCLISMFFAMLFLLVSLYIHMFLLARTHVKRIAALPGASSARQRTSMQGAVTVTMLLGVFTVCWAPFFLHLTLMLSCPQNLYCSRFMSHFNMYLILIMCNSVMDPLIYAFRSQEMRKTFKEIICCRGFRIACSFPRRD
Chain of human (h)MC4R (P32245 whole entry): as the sequence (P32245 whole entry) above

On to `CC(=O)N[C@H](Cc1ccc2ccccc2c1)C(=O)N[C@H](Cc1ccc2ccccc2c1)C(=O)N[C@H](Cc1ccc2ccccc2c1)C(=O)N[C@H](Cc1ccc2ccccc2c1)C(N)=O` [Ac-DNal(2′)-DNal(2′)-DNal(2′)-DNal(2′)-NH2] (Ac-[d2Nal][d2Nal][d2Nal][d2Nal]-NH2), for which the “solubility in solvents compatible with RP-HPLC” value in series [1] is reported as “insoluble”.

`CC(=O)N[C@H](Cc1ccc2ccccc2c1)C(=O)N[C@@H](CCCNC(=N)N)C(=O)N[C@H](Cc1ccc2ccccc2c1)C(=O)N[C@H](CCCCN)C(N)=O` [compound 13, Ac-DNal(2′)-Arg-DNal(2′)-DLys-NH2] (Ac-[d2Nal]R[d2Nal][dK]-NH2): the EC50 on mMC1R [2] is 400 to 7900 nM.

On to `CC(=O)N[C@H](Cc1ccc2ccccc2c1)C(=O)N[C@@H](CCCNC(=N)N)C(=O)N[C@H](Cc1ccc2ccccc2c1)C(=O)N[C@H](Cc1ccc2ccccc2c1)C(N)=O` [compound 14] (Ac-[d2Nal]R[d2Nal][d2Nal]-NH2), for which the EC50 at mMC1R [2] was 400 to 7900 nM.

`CC(=O)N[C@H](Cc1ccc2ccccc2c1)C(=O)N[C@@H](CCCNC(=N)N)C(=O)N[C@H](Cc1ccc2ccccc2c1)C(=O)N[C@@H](CCCNC(=N)N)C(N)=O` [compound 15, Ac-DNal(2′)-Arg-DNal(2′)-Arg-NH2] (Ac-[d2Nal]R[d2Nal]R-NH2) had an EC50 on mMC1R [2] of 400 to 7900 nM.

In the case of `CC(=O)N[C@H](Cc1ccc2ccccc2c1)C(=O)N[C@@H](CCCNC(=N)N)C(=O)N[C@H](Cc1ccc(I)cc1)C(=O)N[C@H](Cc1ccc2ccccc2c1)C(N)=O` [compound 20] (Ac-[d2Nal]R[dPhe(4-I)][d2Nal]-NH2), the “mMC3R antagonist pA2” value on mMC3R [3] amounted to 6.1. The “mMC3R partial agonist efficacy, % of the maximal NDP-MSH signal, previously reported” value at mMC3R [4] is on record as 40%. Further, the “mMC4R antagonist pA2” value at mMC4R [5] was determined as 6.5. Also, on mMC3R [6], the “mMC3R antagonist pA2, previously reported” value was 5.6. The EC50 at mMC1R [7] (read-out: mMC1R agonist EC50) worked out at 5000 nM. Also, the “mMC1R agonist activity” value on mMC1R [7] is on record as “full agonist activity”. Further, the “mMC4R antagonist pA2, previously reported” value on mMC4R [8] was 5.9. For the same molecule, at mMC4R [9] (Doering 2017), the “mMC4R partial agonist efficacy, % of the maximal NDP-MSH signal, previously reported” value is given as 37%. Moreover, at mMC5R [10], the “mMC5R partial agonist efficacy, % of the maximal NDP-MSH signal, previously reported” value is 43%.

`CC(=O)N[C@H](Cc1ccc2ccccc2c1)C(=O)N[C@@H](CCCNC(=N)N)C(=O)N[C@@H](Cc1ccc2ccccc2c1)C(=O)N[C@H](CCCCN)C(N)=O` [compound 22, Ac-DNal(2′)-Arg-Nal(2′)-DLys-NH2] (Ac-[d2Nal]R[2Nal][dK]-NH2): the “mMC4R antagonist pA2” value at mMC4R [5] is 7.8. Besides, at mMC1R [2], the EC50 lay in the range of 400 to 7900 nM.

As for `CC(=O)N[C@H](Cc1ccc(I)cc1)C(=O)N[C@H](Cc1ccc2ccccc2c1)C(=O)N[C@H](Cc1ccc(I)cc1)C(=O)N[C@@H](CCCNC(=N)N)C(N)=O` [compound 33, Ac-DPhe(pI)-DNal(2′)-DPhe(pI)-Arg-NH2] (Ac-[dPhe(4-I)][d2Nal][dPhe(4-I)]R-NH2), the “mMC3R antagonist activity” value on mMC3R [3] (at the concentrations assayed) is “did not act as antagonists”. The “mMC4R agonist activity” value on mMC4R [11] was “inactive”. Moreover, the “mMC1R agonist activity” value at mMC1R [7] is recorded as “partially stimulate”. At mMC5R [12], the EC50 was in the range of 30 to 800 nM and the “mMC5R agonist activity” value was “full mMC5R agonists”. The EC50 at mMC5R [12] (read-out: mMC5R agonist EC50) amounted to 130 nM. Besides, the “mMC3R agonist activity” value on mMC3R [13] was “inactive”.

As to Ac-DNal(2′)-Arg-DNal(2′), the IC50 on MC4R [14] was 36.5 nM.

In the case of Ac-DNal(2′)-Arg-Nal(2′) [MCL0020], the IC50 was 11.6 nM on human (h)MC4R, 1120 nM at MC3R [15], 15.4 nM on MC4R [14] and > 10000 nM on MC1R [16].

As for “Ac-His-DPhe-Arg-Trp-NH2 [reference compound]”, on mMC4R [9] (Haskell-Luevano 2001), the “agonist potency at the mMC4R” value was “nanomolar”.

For the molecule Ac-Nle-c[Asp-Oic-DBip-Pip-Trp-Lys]-NH2, the IC50 at MC3R [17] was > 5000 nM; on MC1R [18], > 5000 nM; at MC5R [19] (J. Med. Chem. 2007, read-out: concentration displacing radiolabeled NDP-MSH at the MC5R) it was 0.95 nM; on MC4R [21] it was > 5000 nM. In addition, the EC50 at MC5R [20] (J. Med. Chem. 2007, read-out: concentration activating the MC5R) was 0.99 nM. Further, at MC4R [22], the “activation of the MC4R” value is listed as “up to 40%”. For the same molecule, at MC1R [23], the “activation of the MC1R” value was “up to 40%”. Also, the “activation of the MC3R” value at MC3R [24] is “up to 40%”.

Consider “Ac-Nle-c[Asp-Pro-DNal(2′)-Arg-Trp-Lys]-NH2 [PG901]”, for which the “hMC4R antagonist pA2” value at MC4R [25] is listed as 9.3. In addition, the “hMC3R antagonist pA2” value at MC3R [26] is on record as 9.0.

As for Ac-Oic-DBip-Pip-Trp-NH2, the EC50 at MC5R [20] (Peptides 2007, read-out: agonist potency at the MC5R) is 1200 nM.

On to “Ac-Phe(pI)-Nal(2′)-Phe(pI)-Arg-NH2 [compound 49]”, for which the “mMC4R agonist activity” value at mMC4R [11] was “inactive”. In addition, the “mMC1R agonist activity” value on mMC1R [7] is “partially stimulate”. The “mMC5R agonist activity” value on mMC5R [12] is on record as “did not possess agonist activity”. Also, the “mMC3R agonist activity” value on mMC3R [13] was “inactive”.

Consider “Ac-Ser-Tyr-Ser-Nle-Glu-Oic-DBip-Pip-Trp-Gly-Lys-Pro-Val-NH2 (Ac-SYS[Nle]E[Oic][dBip][Pip′]WGKPV-NH2; reading uncertain; also: printed as Ac-Ser-Tyr-Ser-Nle-Glu-Oic-DBip-Pip-Trp-Gly-Lys-Pro-Val-NH2)”, for which, in the series with MC5R [19] (Peptides 2007), the “selectivity for the MC5R by radiolabeled 125I-NDP-MSH displacement” value is “greater than 3200 fold”. In addition, the “MC5R agonist potency” value with MC5R [20] (Peptides 2007) was “sub-nanomolar”.

For the molecule “Ac-[dPhe(4-I)]R[2Nal]R-NH2 [compound 48]”, the “mMC3R antagonist pA2” value on mMC3R [3] was 7.8. At mMC4R [11] (100 μM), the “mMC4R partial activation, % of the maximal NDP-MSH signal” value is listed as 25%. Moreover, on mMC4R [5], the “MC4R antagonist potency compared to endogenous AGRP(86-132)” value is on record as “about equipotent” and the “mMC4R antagonist pA2” value was found to be 9.0.
